Assay results reported in patent publication US20250304549A1, “HYDROXYAMIDE DERIVATIVE AND USE THEREOF” (SICHUAN HUIYU PHARMACEUTICAL CO., LTD., priority 2022, published 2025).
Structures can show the parent of a compound that is named as a salt.

Tests used:
DU145 cells = test: In vitro cell inhibition assay - DU145 cell proliferation (CellTiter-Glo); format: cell-based; settings: Homo sapiens, DU-145, Du145 prostate cancer cell proliferation
Experimental: 5. In Vitro Cell Inhibition Assay—DU145 Cell Proliferation
The inhibitory effect of the compounds on cell proliferation was assessed by detecting the number of viable cells using the CellTiter-Glo® reagent. DU145 cells in the logarithmic growth phase were collected and inoculated into transparent bottom 96-well plates at a density 1×10^3 cells per well with 100 μL medium, and incubated at 37° C., 5% CO2 overnight. The compounds were sequentially diluted in a 5-fold concentration gradient with DMSO to obtain 8 different concentrations. These were then diluted with RPMI-640 (containing 10% FBS) cell culture medium to obtain the compound working solution (2×), which was added to the cell supernatant at 100 μL per well. The incubation continued for 6 days at 37° C., 5% CO2. The plate was then removed and equilibrated at room temperature (25° C.) along with the CellTiter-Glo® mixing reagent for 10-30 minutes. After centrifugation, 120 μL of the culture medium was carefully aspirated from each well, and 60 μL of CellTiter-Glo® reagent was added. The cells were thoroughly mixed with the CellTiter-Glo® mixing reagent using a microplate shaker for 2 min. and then incubated at room temperature for 10 min. The 96-well plate was subsequently placed on a multifunctional microplate reader to record the Luminescence values (RLU).
The inhibition rate was calculated using the following formula: […]
Note: ‘Negative’ refers to the group without inhibitors; ‘Blank’ refers to the group without cells.
The IC50 value was determined by fitting the inhibition rate by GraphPad Prism software.

HDAC8 = HDAC8 (Homo sapiens (Human), UniProt Q9BY41); test: In vitro enzyme inhibition assay - HDAC (HDAC-Glo I/II), HDAC8; format: biochemical; settings: read-out: HDAC IC50 (nM) HDAC 8
Procedure, shortened: (§1)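 The compound, serially diluted 5-fold in DMSO across 8 concentrations starting from a 1 mM stock, was made up as 4× working solutions in HDAC buffer. It was then tested in the HDAC-Glo I/II system, and luminescence was recorded. IC50 values came from variable-slope four-parameter curves of inhibition rate.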

NCI-H69 cells = test: In vitro cell inhibition assay - NCI-H69 cell proliferation (CellTiter-Glo); format: cell-based; settings: Homo sapiens, NCI-H69, H69 small cell lung cancer cell proliferation
Procedure, shortened: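 Proliferation was assessed after a 7-day compound treatment of cells seeded at 1×10^3 per well. IC50 values came from fitting inhibition rates derived from CellTiter-Glo luminescence.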

NCI-H1417 cells = test: In vitro cell inhibition assay - H1417 cell proliferation (CellTiter-Glo); format: cell-based; settings: Homo sapiens, NCI-H1417, H1417 small cell lung cancer cell proliferation
Procedure, shortened: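 Cells exposed to 8 compound concentrations (5-fold dilutions) in BEGM with 10% FBS for 7 days at 37° C., 5% CO2. Viable cells measured by CellTiter-Glo luminescence; inhibition versus no-inhibitor and no-cell controls, IC50 fitted.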

pan-HDAC = test: In vitro enzyme inhibition assay - HDAC (HDAC-Glo I/II), pan-HDAC; format: biochemical
Procedure, shortened: as §1

LSD1 = LSD1 (Homo sapiens (Human), UniProt O60341); test: In vitro enzyme inhibition assay - LSD1 (HTRF); format: biochemical

Chain of HDAC8 (Q9BY41 whole entry): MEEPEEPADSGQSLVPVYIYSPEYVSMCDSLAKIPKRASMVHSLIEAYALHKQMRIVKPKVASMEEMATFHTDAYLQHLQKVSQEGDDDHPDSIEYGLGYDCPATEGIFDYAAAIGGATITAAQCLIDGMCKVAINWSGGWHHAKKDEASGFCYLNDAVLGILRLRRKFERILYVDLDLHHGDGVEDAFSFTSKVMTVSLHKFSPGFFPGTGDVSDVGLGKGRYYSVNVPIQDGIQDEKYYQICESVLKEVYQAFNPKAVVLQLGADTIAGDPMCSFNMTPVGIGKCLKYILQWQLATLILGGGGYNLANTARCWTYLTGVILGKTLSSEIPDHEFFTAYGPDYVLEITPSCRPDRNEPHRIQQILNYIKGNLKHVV

Row | SMILES | IC50 (DU145 cells) [nM] | IC50 (HDAC8) [nM] | IC50 (NCI-H69 cells) [nM] | IC50 (NCI-H1417 cells) [nM] | IC50 (pan-HDAC) [nM] | IC50 (LSD1) [nM]
1 | COc1ccc(-c2cnc(N3CCC(NCCCc4ccc(C(=O)NO)cc4)CC3)c(C#N)c2-c2ccc(C#N)c(F)c2)cc1O [Example 107, 4-(3-(3-Cyano-4-(4-cyano-3-fluorophenyl)-5-(3-hydroxy-4-methoxyphenyl)pyridin-2-yl)piperidin-4-yl)amino)propyl)-N-hydroxybenzamide formate] | 2330 | 50.6 | 1040 | 10.4 | 378 | 1.29
2 | COc1ccc(-c2cnc(N3CCC(NCc4ccc(C#CC(=O)NO)cc4)CC3)c(C#N)c2-c2ccc(C#N)c(F)c2)cc1O [Example 109, 3-(4-(1-(3-Cyano-4-(4-cyano-3-fluorophenyl)-5-(3-hydroxy-4-methoxyphenyl)pyridin-2-yl)piperidin-4-yl)amino)methyl) phenyl)-N-hydroxypropiolamide formate] | 3820 | 391 | 411 | 2.76 | 657 | 4.19
3 | COc1ccc(-c2cnc(N3CCC(NCCNc4ncc(C(=O)NO)cn4)CC3)c(C#N)c2-c2ccc(C#N)c(F)c2)cc1O [Example 115, 2-(2-(1-(3-Cyano-4-(4-cyano-3-fluorophenyl)-5-(3-hydroxy-4-methoxyphenyl)pyridin-2-yl)piperidin-4-yl)amino)ethyl) amino)-N-hydroxypyrimidine-5-carboxamide formate] | 6340 | 37.1 | 3340 | 2.25 | 20.6 | 0.16
4 | COc1ccc(-c2cnc(N3CCC(NCCc4ccc(CC(=O)NO)cc4)CC3)c(C#N)c2-c2ccc(C#N)c(F)c2)cc1O [Example 120, 2-(4-(2-((1-(3-Cyano-4-(4-cyano-3-fluorophenyl)-5-(3-hydroxy-4-methoxyphenyl)pyridin-2-yl)piperidin-4-yl)amino)ethyl)phenyl)-N-hydroxyacetamide formate] | 3770 | 1950 | 938 | 11.1 | 1310 | 0.33
5 | COc1ccc(-c2cnc(N3CCC(NCC4CCN(c5ccc(C(=O)NO)cc5)CC4)CC3)c(C#N)c2-c2ccc(C#N)c(F)c2)cc1O [Example 121, 4-(4-((1-(3-Cyano-4-(4-cyano-3-fluorophenyl)-5-(3-hydroxy-4-methoxyphenyl)pyridin-2-yl)piperidin-4-yl)amino)methyl) piperidin-1-yl)-N-hydroxybenzamide formate] | 2220 | 17.2 | 127 | 15.6 | 404 | 0.35
6 | COc1ccc(-c2cnc(N3CCC(NCCCc4ncc(C(=O)NO)s4)CC3)c(C#N)c2-c2ccc(C#N)c(F)c2)cc1O [Example 125, 2-(3-(3-Cyano-4-(4-cyano-3-fluorophenyl)-5-(3-hydroxy-4-methoxyphenyl)pyridin-2-yl)piperidin-4-yl)amino)propyl)-N-hydroxythiazole-5-carboxamide formate] | 3040 | 23.4 | 1950 | 12 | 226 | 0.74

These reach a lower IC50 (DU145 cells). Values come first.

Row | IC50 (DU145 cells) [nM] | IC50 (HDAC8) [nM] | IC50 (NCI-H69 cells) [nM] | IC50 (NCI-H1417 cells) [nM] | IC50 (pan-HDAC) [nM] | IC50 (LSD1) [nM] | SMILES
7 | 2030 | 581 | 639 | 0.74 | 40.2 | 963 | COc1ccc(-c2cnc(N3CCC(NC(=O)CCCCCCC(=O)NO)CC3)c(C#N)c2-c2ccc(C#N)c(F)c2)cc1O [Example 177, N^1-(1-(3-Cyano-4-(4-cyano-3-fluorophenyl)-5-(3-hydroxy-4-methoxyphenyl)pyridin-2-yl)piperidin-4-yl)-N^8-hydroxyoctanediamide formate]
8 | 372 | 401 | 91.6 | 30.7 | 61 | 21.4 | COc1ccc(-c2cnc(N3CCC4(CC3)CN(Cc3ccc(/C=C/C(=O)NO)cc3)C4)c(C#N)c2-c2ccc(C#N)c(F)c2)cc1O [Example 138, (E)-3-(4-(((7-(3-Cyano-4-(4-cyano-3-fluorophenyl)-5-(3-hydroxy-4-methoxyphenyl)pyridin-2-yl)-2,7-diazaspiro[3.5]nonan-2-yl)methyl)phenyl)-N-hydroxyacrylamide formate]
9 | 364 | 77.7 | 93.7 | 29.1 | 10.4 | 17.2 | Cn1cnc2cc(-c3cnc(N4CCC(NCc5ccc(/C=C/C(=O)NO)cc5)CC4)c(C#N)c3-c3ccc(C#N)c(F)c3)ccc21 [Example 136, (E)-3-(4-(((1-(3-Cyano-4-(4-cyano-3-fluorophenyl)-5-(1-methyl-1H-benzo[d]imidazol-5-yl))pyridin-2-yl)piperidin-4-yl)amino)methyl) phenyl)-N-hydroxyacrylamide formate]
10 | 308 | 618 | 189 | 10.4 | 27.4 | 2.7 | COc1ccc(-c2cnc(N3CCC(NCc4ncc(/C=C/C(=O)NO)s4)CC3)c(C#N)c2-c2ccc(C#N)c(F)c2)cc1O [Example 151, (E)-3-(2-(((1-(3-Cyano-4-(4-cyano-3-fluorophenyl)-5-(3-hydroxy-4-methoxyphenyl)pyridin-2-yl)piperidin-4-yl)amino)methyl)thiazol-5-yl)-N-hydroxyacrylamide hydrochloride]
11 | 239 | 223 | 130 | 2.01 | 5 | 0.39 | COc1ccc(-c2cnc(N3CCC(NCc4ccc(OCC(=O)NO)c(OC)c4)CC3)c(C#N)c2-c2ccc(C#N)c(F)c2)cc1O [Example 128, 2-(4-((1-(3-Cyano-4-(4-cyano-3-fluorophenyl)-5-(3-hydroxy-4-methoxyphenyl)pyridin-2-yl)piperidin-4-yl)amino)methyl)-2-methoxyphenoxy)-N-hydroxyacetamide formate]
12 | 235 | 171 | 103 | 13.2 | 3.86 | 10.8 | COc1ccc(-c2cnc(N3CCC(NCc4ccc(/C=C/C(=O)NO)cc4OC)CC3)c(C#N)c2-c2ccc(C#N)c(F)c2)cc1O [Example 132, (E)-3-(4-(((1-(3-Cyano-4-(4-cyano-3-fluorophenyl)-5-(3-hydroxy-4-methoxyphenyl)pyridin-2-yl)piperidin-4-yl)amino)methyl)-3-methoxyphenyl)-N-hydroxyacrylamide formate]
13 | 223 | 131 | 208 | 4.91 | 2.57 | 1.15 | COc1ccc(-c2cnc(N3CCC(NCc4cnc(CCC(=O)NO)nc4)CC3)c(C#N)c2-c2ccc(C#N)c(F)c2)cc1O [Example 152, 3-(5-((1-(3-Cyano-4-(4-cyano-3-fluorophenyl)-5-(3-hydroxy-4-methoxyphenyl)pyridin-2-yl)piperidin-4-yl)amino)methyl) pyrimidin-2-yl)-N-hydroxypropanamide hydrochloride]
14 | 86.9 | 322 | 25.8 | 4.38 | 18.2 | 1.47 | N#Cc1ccc(-c2c(-c3ccc(C(F)(F)F)c(O)c3)cnc(N3CCC(NCc4ccc(/C=C/C(=O)NO)cc4)CC3)c2C#N)cc1F [Example 129, (E)-3-(4-(1-(3-Cyano-4-(4-cyano-3-fluorophenyl)-5-(3-hydroxy-4-(trifluoromethyl)phenyl)pyridin-2-yl)piperidin-4-yl)amino)methyl) phenyl)-N-hydroxyacrylamide formate]
15 | 37.8 | 74.9 | 39.3 | 18.6 | 5.23 | 3.35 | N#Cc1ccc(-c2c(-c3ccc(OC(F)F)c(O)c3)cnc(N3CCC(NCc4cnc(/C=C/C(=O)NO)nc4)CC3)c2C#N)cc1F [Example 145, (E)-3-(5-(((1-(3-Cyano-4-(4-cyano-3-fluorophenyl)-5-(4-(difluoromethoxy)-3-hydroxyphenyl)pyridin-2-yl)piperidin-4-yl)amino)methyl)pyrimidin-2-yl)-N-hydroxyacrylamide formate]
